Results reported in patent US8518677B2, “Microbial bioreaction process” (Evolva Sa, priority 2007, dated 2013).
Read-outs that look alike come from different tables or passages of the source.

Tests used:
[1] = Stilbenoid levels in batch culture of solvent-adapted PALCPR, dodecane/octylacetate two-phase vs control (HPLC); design: species or system S. cerevisiae; conditions: for Upper phase (0.3 L) % total: 200 ml dodecane + 100 ml octylacetate on 1 L medium; for Lower phase (1 L) % total: aqueous medium phase, dodecane/octylacetate
Method: (§1) A Phenomenex (Torrance, Calif., USA) Luna 3 micrometer C18 (100×2.00 mm) column was used at 60° C. As mobile phase a gradient of acetonitrile and milliq water (both containing 50 ppm trifluoroacetic acid) was used at a flow of 0.4 ml/min. The gradient profile was linear from 15% acetonitrile to 100% acetonitrile over 20 min.

[2] = Stilbenoid levels in two-phase batch culture of evolved PALCPR (PALCPR-evolved-I) with octylacetate (HPLC); design: species or system S. cerevisiae; conditions: for Upper phase (0.1 L) % total: 100 ml octylacetate on 1 L medium; for Lower phase (1 L) % total: aqueous phase, octylacetate
Method: as §1
(§2) For that, cells of the culture described in the previous example were harvested during mid-exponential-phase and stored at −80° C. in 15% glycerol and subsequently a fermentor, containing the same medium as described in the previous example with 10 g/l glucose and 100 g/l galactose, was then inoculated with cells of said PALCPR-solvent culture. The cells were allowed to fully consume the glucose at a stirring speed of 1000 rpm with an average dissolved oxygen content of above 70% of saturated air. At the onset of galactose consumption, the stirring rate was turned down to 300 rpm, after which slowly 100 ml of octylacetate was added.
(§3) For the determination of stilbenoids, an aliquot of 25 ml of cell broth was collected, and phase separation was initiated by centrifugation at 3500 g for 5 minutes. Both the upper octylacetate phase and the lower aquous medium phase were collected separately with a pipet and directly analyzed for their content of stilbenoids and intermediates by HPLC.

[3] = Stilbenoid levels in two-phase batch culture of PALCPR-evolved-II with octylacetate (HPLC); design: species or system S. cerevisiae; conditions: for Upper phase (0.1 L) % total: 100 ml octylacetate from start; for Lower phase (1 L) % total: aqueous phase, octylacetate
Method: as §1
However, the medium now only contained 100 g/l galactose and did contain 100 ml of octylacetate from the beginning of the fermentation. In addition, the stirrer speed was instantly set at 800 rpm. […] The strain is referred to as PALCPR-evolved-II.
as §3

[4] = Stilbenoid levels in two-phase batch culture of PALCPR-evolved-III with octylacetate (HPLC); design: species or system S. cerevisiae; conditions: for Upper phase (0.1 L) % total: 100 ml octylacetate from start; for Lower phase (1 L) % total: aqueous phase, octylacetate
Method: as §1
The stirrer speed was instantly set at 800 rpm. […] The strain is referred to as PALCPR-evolved-III.
as §3

[5] = Stilbenoid levels in batch culture of PALCPR-evolved-III with nonyl-acetate vs control (HPLC); design: species or system S. cerevisiae; conditions: for Upper phase (0.1 L) % total: PALCPR-solvent (PALCPR-evolved-III), 100 ml nonyl-acetate
Method: as §1
The stirrer speed was instantly set at 800 rpm. […] The cultivation will be referred to as PALCPR-solvent. […] The cultivation will be referred to as PALCPR-control.
as §3, with “nonylacetate” for “octylacetate”, “aqueous” for “aquous”, “pipette” for “pipet”

[6] = Stilbenoid levels in batch culture of non-evolved FS09229 with nonyl-acetate vs control (HPLC); design: species or system S. cerevisiae; conditions: FS09229-solvent; for Upper phase (0.1 L) % total: 100 ml nonyl-acetate; for Lower phase (1 L) % total: aqueous phase, nonyl-acetate
Method: as §1
The non-evolved FS09229 strain described in previous examples was grown in the presence of nonyl-acetate. […] The stirrer speed was instantly set at 800 rpm. […] The cultivation will be referred to as FS09229-solvent. […] The cultivation will be referred to as FS09229-control.
as §3, with “nonylacetate” for “octylacetate”, “aqueous” for “aquous”, “pipette” for “pipet”

[7] = system: Escherichia coli strain FS06112; assay: Glycerol consumption of FS06112 shakeflask cultures in the presence of extraction solvent; assay type: cell-based
Method: (§4) A glycerol stock of strain FS06112 was used to inoculate 500 ml baffled shake flasks that contained 100 ml modified M9 medium consisting of 4.5 g/l glycerol, 1.5 g/l yeast extract, 3 g/l K2HPO4, 6.8 g/l Na2HPO4, 0.5 g/l NaCl, 1 g/l NH4C, 50 μg/ml ampicillin and 50 μg/ml kanamycin; the initial pH was set at 7.0. The shakeflasks were incubated at ambient temperature, and were mixed with a magnetic stirring bar at approximately 150 rpm. After 5 hours, isopropyl β-thiogalactopyranoside (IPTG) was added at a final concentration of 4 mM, as an inducer of the T7 promoter that was in front of each of the three genes TAL, 4CL and VST. After one hour an aliquot of 10 ml of the solvent octyl acetate was added to one shakeflask that is now referred to as FS06112-solvent; the shakeflask culture without solvent will be referred to as FS06112-control.
as §4, with “β-thiogalactopyranoside(IPTG)” for “β-thiogalactopyranoside (IPTG)”, “methyl decanoate” for “octyl acetate”
A glycerol stock of strain FS06112 was used to inoculate 500 ml baffled shake flasks that contained 100 ml modified M9 medium consisting of 4.5 g/l glycerol, 1.5 g/l yeast extract, 3 g/l K2HPO4, 6.8 g/l Na2HPO4, 0.5 g/l NaCl, 1 g/l NH4C, 50 μg/ml ampicillin and 50 μg/ml kanamycin; the initial pH was set at 7.0. […]

[8] = partition coefficient between water and octanol; cited from earlier work
[9] = system: S. cerevisiae strain PALCPR; assay: Growth of evolved PALCPR strains in the presence of extraction solvent (CO2 production); assay type: cell-based
Method: as §2, with “The cells of the PALCPR-solvent culture described in the previous example were taken as starting point because the presence of the solvent mixture would possibly have already evoked adaptation of cells to solvents. For” for “For”
Galactose consumption indeed commenced again. A small arrest in CO2 production again occurred after 20 hours which, however, recovered after 5 hours, after which the cells grew exponentially with concomitant production of CO2, consumption of galactose within less than 40 hours. Based upon the CO2 production the specific growth rate was estimated to be 0.062 1/h (FIG. 2). The final biomass concentration was 21.6 g/l.
In order to further improve said strain in terms of length of lag-phase and growth rate, a 25 ml aliquot of the exponentional growing PALCPR-evolved-I strain was used to inoculate a fermentor, containing a similar medium as described in the previous example. However, the medium now only contained 100 g/l galactose and did contain 100 ml of octylacetate from the beginning of the fermentation. In addition, the stirrer speed was instantly set at 800 rpm. Upon inoculation of the fermentor, consumption of galactose only commenced after approximately 40 hours, indicated by a slow increase in CO2 signal, a decrease in dissolved oxygen and addition of base. Indeed the cells continued to grow exponentially with concomitant production of CO2, and consumed the galactose within less than 90 hours. Based upon the CO2 production the specific growth rate was estimated to be 0.041 1/h (FIG. 3). The final biomass concentration was 21.5 g/l. The strain is referred to as PALCPR-evolved-II.
Therefore, to further improve said strain in terms of both length of lag-phase and growth rate, a 50 ml aliquot of the exponentional growing PALCPR-evolved-II strain was used to inoculate a fermentor, containing a similar medium as described in the previous example (thus containing 100 g/l galactose 100 ml of octylacetate from the beginning of the fermentation). The stirrer speed was instantly set at 800 rpm. Upon inoculation of the fermentor, consumption of galactose already commenced after less then 20 hours, indicated by a slow increase in CO2 signal, a decrease in dissolved oxygen and addition of base. Indeed the cells further grew exponentially with concomitant production of CO2, and now consumed the galactose within approximately 50 hours. Based upon the CO2 production the specific growth rate was estimated to be 0.091 1/h (FIG. 4). The final biomass concentration was 18.9 g/l. The strain is referred to as PALCPR-evolved-III.
The evolved PALCPR-evolved-III strain described in the previous example was grown in the presence of nonyl-acetate, a similar solvent as octylacetate with one additional carbon atom. A 1 ml aliquot of a glycerol stock that was made from an exponentional growing PALCPR-evolved-III strain was used to inoculate a fermentor, containing a similar medium as described in the previous example, containing only 100 g/l galactose and 100 ml of nonyl-acetate from the beginning of the fermentation. The stirrer speed was instantly set at 800 rpm. Upon inoculation of the fermentor, consumption of galactose only commenced after approximately 70 hours, indicated by a slow increase in CO2 signal, a decrease in dissolved oxygen and addition of base. […]

[10] = PALCPR-evolved-II, 100 ml solvent from start, 800 rpm
[11] = PALCPR-evolved-III, 100 ml solvent from start, 800 rpm, fresh inoculum

Row | Compound | Upper phase (0.3 L) % total [1] | Lower phase (1 L) % total [1] | Upper phase (0.1 L) % total [2] | Lower phase (1 L) % total [2] | Upper phase (0.1 L) % total [3] | Lower phase (1 L) % total [3] | Upper phase (0.1 L) % total [4] | Lower phase (1 L) % total [4] | Upper phase (0.1 L) % total [6] | Lower phase (1 L) % total [6] | logP [8] | further results
1 | O=C(O)C=Cc1ccccc1 [Cinnamic acid, cinnamic acid] | 56.9 % total | 43.1 % total | 52.5 % total | 47.5 % total | 88.6 % total | 11.4 % total | 71.3 % total | 28.7 % total | 42.2 % total | 57.8 % total | – | Upper phase (0.1 L) % total [5]: 29.6 % total; Upper phase (0.1 L) % total ([5]; listed as cinnamic acid): 25 % total; Lower phase (1 L) % total ([5]; PALCPR-solvent, aqueous phase, nonyl-acetate): 70.4 % total; Upper phase (0.1 L) % total ([6]; listed as cinnamic acid): 42 % total
2 | O=C(O)/C=C/c1ccc(O)cc1 [Coumaric acid, 4-coumaric acid] | – | – | 18.0 % total | 82.0 % total | 59.3 % total | 40.7 % total | 40.0 % total | 60.0 % total | – | – | – | –
3 | Oc1cc(O)cc(/C=C/c2ccccc2)c1 [Pinosylvin, pinosylvin] | 95.2 % total | 4.8 % total | 100 % total | 0; 0 % total | 100 % total | 0; 0 % total | 90.3 % total | 9.7 % total | 100 % total | 0.0; 0.0 % total | – | Upper phase (0.3 L) % total ([1]; listed as pinosylvin): 95 % total; Upper phase (0.1 L) % total ([4]; listed as pinosylvin): 100 % total
4 | CCCCCCCCCC(=O)OC [methyl decanoate] | – | – | – | – | – | – | – | – | – | – | 4.3 | time in which the glycerol was consumed [7]: ≤ 48 h
5 | CCCCCCCCOC(C)=O [n-octyl acetate] | – | – | – | – | – | – | – | – | – | – | 3.7 | lag-phase until galactose consumption commenced [9, 10]: approximately 40 hours; specific growth rate [9, 10]: 0.041 h⁻¹; lag-phase until galactose consumption commenced [9, 11]: < 20 h; specific growth rate [9, 11]: 0.091 h⁻¹; time until cells started to grow after solvent addition (lag-phase) ([9]; cells from PALCPR-solvent culture (PALCPR-evolved-I), 100 ml solvent added to 1 L): approximately 170 hours; specific growth rate ([9]; cells from PALCPR-solvent culture (PALCPR-evolved-I), 100 ml solvent added to 1 L at onset of galactose consumption): 0.062 h⁻¹; time in which 2.5 g/l of glycerol was consumed [7]: ≤ 24 h
6 | CCCCCCCCCC(C)=O [undecanone] | – | – | – | – | – | – | – | – | – | – | – | time in which the glycerol was consumed ([7]; FS06112-solvent, 10 ml solvent on 100 ml medium, control 30 hours): ≤ 48 h
